Assay results: PMC10165934 (Emerging Microbes & Infections, 2023)
Where two headings read alike, the source gives them in different places.

Experiments:
SARS-CoV-2 [1] = conditions: read-out: antiviral EC50; ref 39 (Kasprzyk et al.); cited from earlier work
SARS-CoV-2 NSP14 MTase [2] = molecular target: T1, SARS-CoV-2 NSP14 MTase (Severe acute respiratory syndrome coronavirus 2, UniProt P0DTD1); conditions: read-out: anti-MTase IC50; ref 39 (Kasprzyk et al.); cited from earlier work
SARS-CoV-2 [3] = conditions: read-out: antiviral EC50; ref 37 (Basu et al.); cited from earlier work
NS5 MTase of ZIKV = molecular target: T2, NS5 MTase of ZIKV (Zika virus, UniProt Q32ZE1); assay: FP-based FL-NAH displacement assay, ZIKV NS5; format: binding; conditions: ZIKV NS5 2.5 µM, 96-well plate
T2 sequence (Q32ZE1 2517-2790): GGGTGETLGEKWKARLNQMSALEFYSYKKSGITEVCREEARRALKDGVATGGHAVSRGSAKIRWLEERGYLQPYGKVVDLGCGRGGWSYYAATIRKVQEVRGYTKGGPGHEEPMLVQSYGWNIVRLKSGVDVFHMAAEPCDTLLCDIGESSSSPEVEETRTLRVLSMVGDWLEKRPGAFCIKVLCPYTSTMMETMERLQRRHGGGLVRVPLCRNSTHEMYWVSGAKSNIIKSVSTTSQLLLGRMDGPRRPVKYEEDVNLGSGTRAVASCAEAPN

[4] = molecular target: SARS-CoV-2 NSP16 2’-O MTase (Severe acute respiratory syndrome coronavirus 2, UniProt P0DTD1); assay: FP-based FL-NAH displacement assay, NSP16; format: binding; conditions: NSP16 0.5 µM, 96-well plate
SARS-CoV-2 NSP14 MTase [5] = molecular target: T1, SARS-CoV-2 NSP14 MTase; assay: FP-based FL-NAH displacement assay; format: binding
SARS-CoV-2 NSP14 MTase [6] = molecular target: T1, SARS-CoV-2 NSP14 MTase; conditions: read-out: anti-MTase IC50; ref 37 (Basu et al.); cited from earlier work
SARS-CoV-2 WA strain = assay: Checkerboard combination assay; format: cell-based; conditions: Vero E6 cells

Cc1cc(-c2ccc(/N=N/c3ccc4c(S(=O)(=O)O)cc(S(=O)(=O)O)c(N)c4c3O)c(C)c2)ccc1/N=N/c1ccc2c(S(=O)(=O)O)cc(S(=O)(=O)O)c(N)c2c1O [Evans Blue]
EC50 (SARS-CoV-2 [1]): 31 µM | IC50 (SARS-CoV-2 NSP14 MTase [2]): 4.9 µM

N#Cc1ccc(N2N=C3c4ccc(C(=O)O)cc4CC[C@@H]3[C@@H]2C2CCCC2)cc1Cl [PF-03882845]
EC50 (SARS-CoV-2 [3]): 11 µM

NCCOc1cc(C(=O)Nc2cc(OCCN)c3ccccc3n2)nc(C(=O)Nc2cc(OCCN)c3ccccc3n2)c1 [Pyridostatin]
EC50 (SARS-CoV-2 [1]): 3.6 µM | IC50 (SARS-CoV-2 NSP14 MTase [2]): 4.1 µM

Nc1c(S(=O)(=O)O)cc(Nc2ccc(Nc3nc(Cl)nc(Nc4cccc(S(=O)(=O)O)c4)n3)c(S(=O)(=O)O)c2)c2c1C(=O)c1ccccc1C2=O [Reactive blue 2]
EC50 (SARS-CoV-2 [1]): 16.3 µM

Nc1ncnc2c1ncn2[C@@H]1O[C@H](CSCC[C@H](N)C(=O)O)[C@@H](O)[C@H]1O [SAH, S-adenosyl-L-homocysteine]
quenching of FP from FL-NAH binding to the ZIKV NS5 MTase (NS5 MTase of ZIKV): quenched | quenching of FP from FL-NAH binding to NSP16 [4]: quenched

C[S+](CC[C@H](N)C(=O)[O-])C[C@H]1O[C@@H](n2cnc3c(N)ncnc32)[C@H](O)[C@@H]1O (some centres unmarked) [SAM, S-adenosylmethionine]
quenching of FP from FL-NAH binding to the ZIKV NS5 MTase (NS5 MTase of ZIKV): quenched | IC50 (SARS-CoV-2 NSP14 MTase [5]): 25 µM | quenching of FP from FL-NAH binding to NSP16 [4]: quenched

O=C(CCCN1CCC(O)(c2cccc(C(F)(F)F)c2)CC1)c1ccc(F)cc1 [Trifluperidol]
IC50 (SARS-CoV-2 NSP14 MTase [6]): 23 µM | EC50 (SARS-CoV-2 [3]): 59.8 µM

CC(C)(C)[C@H](NC(=O)C(F)(F)F)C(=O)N1C[C@H]2[C@@H]([C@H]1C(=O)N[C@H](C#N)C[C@@H]1CCNC1=O)C2(C)C [nirmatrelvir]
EC50 shift in the presence of NSC111552 (1.67 µM) (SARS-CoV-2 WA strain): ~1.8 fold

CCC(CC)COC(=O)[C@H](C)N[P@](=O)(OC[C@H]1O[C@@](C#N)(c2ccc3c(N)ncnn23)[C@H](O)[C@@H]1O)Oc1ccccc1 [remdesivir]
EC50 decrease in the presence of NSC111552 ([…]) (SARS-CoV-2 WA strain): about 2.4 fold

Inauhzin
IC50 (SARS-CoV-2 NSP14 MTase [6]): 12.9 µM | EC50 (SARS-CoV-2 [3]): 13 µM
